Assay results as given in patent publication US12612395B2, “Rocaglate derivatives and uses thereof” (TRUSTEES OF BOSTON UNIVERSITY, priority 2023, dated 2026).

Test system: GBM0308 neurospheres
Assay: Neurosphere formation assay (single neurosphere, PI/Hoechst)
Type: cell-based
Details: 72 hours
Description: To gain additional mechanistic insights into GBM cell death induced by (−)-20, the inventors conducted several functional assays. The inventors first derived a single neurosphere from GBM0308 cells cultured in stem cell conditions, which was treated with either DMSO or (−)-20 at varying doses for three days followed by staining with PI and Hoechst dyes and subsequent imaging. […] To capture the kinetics of apoptotic events, the inventors employed caspase 3/7 staining of GBM0308 neurospheres treated with either DMSO or (−)-20 and subsequently evaluated at three timepoints over a 48-hour period. […] (FIG. 5B).
Neurosphere Formation Assays: Single neurospheres were generated by seeding GBM0308 cells (400 cells per well) in a 384-well ultra-low attachment round bottom microplate (Nexcelom Bioscience, ULA-384 U). The plates were then centrifuged at 300×g for 10 minutes to cluster cells at the bottom of the wells, followed by incubation at 37° C. and 5% CO2 for 4 days to allow the formation of single neurospheres and treated with either DMSO or drugs at concentrations of 3.3, 1.11, 0.37, 0.12, 0.041, 0.013, 0.004 μM. On Day 7, neurospheres were stained with propidium iodide and Hoechst, as described above. The “neurosphere 1+Mask” application was used to measure the fluorescent intensities of PI, using Celigo cytometer as described previously.^70

RK-33 [reference compound]
concentration required to observe a noticeable effect on neurosphere size: > 3 µM
